Results from ChEMBL document CHEMBL4480391, “Discovery and synthesis of sulfur-containing 6-substituted 5,8-dimethoxy-1,4-naphthoquinone oxime derivatives as new and potential anti-MDR cancer agents” (Eur J Med Chem, 2019).

Key:
HCT-15 = experiment: Cytotoxicity against human HCT15 cells after 72 hrs by MTT assay; format: functional, cell-based; details: HCT-15, 72 h
MGC-803 = experiment: Cytotoxicity against human MGC803 cells after 72 hrs by MTT assay; format: functional, cell-based; details: MGC-803, 72 h
K562 = experiment: Cytotoxicity against human K562 cells after 72 hrs by MTT assay; format: functional, cell-based; details: K562, 72 h
[1] = Cytotoxicity against human HSF cells after 72 hrs by MTT assay; format: cell-based
[2] = Selectivity index, ratio of IC50 for human HSF cells to IC50 for human HCT15 cells; format: toxicity; details: HSF cells versus HCT15 cells, read-out: Ratio IC50
[3] = Cytotoxicity against human […] cells after 72 hrs by MTT assay; format: functional, cell-based
Bel7402/5-FU = experiment: Cytotoxicity against human Bel7402/5-FU cells after 72 hrs by MTT assay; format: functional, cell-based
MCF7 = experiment: Cytotoxicity against human MCF7 cells after 72 hrs by MTT assay; format: functional, cell-based; details: MCF7, 72 h
NCI/ADR-RES = experiment: Cytotoxicity against human MCF7/ADR cells after 72 hrs by MTT assay; format: functional, cell-based
A549 = experiment: Cytotoxicity against human A549 cells after 72 hrs by MTT assay; format: functional, cell-based; details: A549, 72 h
A549/TR = experiment: Cytotoxicity against human A549/TAX cells after 72 hrs by MTT assay; format: functional, cell-based
[4] = Selectivity ratio of IC50 for human […] cells to IC50 for human Bel7402/5-FU cells; format: functional
[5] = Selectivity ratio of IC50 for human MCF7 cells to IC50 for human MCF7/ADR cells; format: functional
[6] = Selectivity ratio of IC50 for human A549 cells to IC50 for human A549/TAX cells; format: functional

Compound: CCCCCCCCCCC(SCCCCC)c1cc(OC)c2c(c1OC)/C(=N/O)C=C/C2=N\O (stereo not drawn)
- IC50 (HCT-15): 6.34 µM
- IC50 (MGC-803): 12.1 µM
- IC50 (K562): 7.21 µM
- IC50 [1]: > 50 µM
- selectivity ratio [2]: > 7.89

Compound: CCCCCCCCCCCCCCC(c1cc(OC)c2c(c1OC)/C(=N/O)C=C/C2=N\O)S(=O)(=O)CCC(C)C (stereo not drawn)
- IC50 (HCT-15): 2.74 µM
- IC50 (MGC-803): 3.53 µM
- IC50 (K562): 1.56 µM
- IC50 [1]: > 50 µM
- selectivity ratio [2]: > 7.44

Compound: CCCCC(SC(=O)c1cc(OC)c(OC)c(OC)c1)c1cc(OC)c2c(c1OC)/C(=N/O)C=C/C2=N\O (stereo not drawn)
- IC50 (HCT-15): 7.73 µM
- IC50 (MGC-803): 14.7 µM
- IC50 (K562): 6.35 µM
- IC50 [1]: > 50 µM
- selectivity ratio [2]: > 6.47

Compound: CCCCCCCCCCCCC(SCCC(C)C)c1cc(OC)c2c(c1OC)/C(=N/O)C=C/C2=N\O (stereo not drawn)
- IC50 (HCT-15): 13 µM
- IC50 (MGC-803): 17.4 µM
- IC50 (K562): 10.1 µM
- IC50 [1]: > 50 µM
- selectivity ratio [2]: > 3.86

Compound: CCC(SCCC(C)C)c1cc(OC)c2c(c1OC)/C(=N/O)C=C/C2=N\O (stereo not drawn)
- IC50 (HCT-15): 5.23 µM
- IC50 (MGC-803): 10.4 µM
- IC50 (K562): 3.28 µM
- IC50 [1]: > 50 µM
- selectivity ratio [2]: > 22.4

Compound: CCCCCCC(c1cc(OC)c2c(c1OC)/C(=N/O)C=C/C2=N\O)S(=O)(=O)CCC(C)C (stereo not drawn)
- IC50 (HCT-15): 7.33 µM
- IC50 (MGC-803): 15.7 µM
- IC50 (K562): 4.25 µM
- IC50 [1]: > 50 µM
- selectivity ratio [2]: > 6.82

Compound: CCCCCCCCC(c1cc(OC)c2c(c1OC)/C(=N/O)C=C/C2=N\O)S(=O)(=O)CCC(C)C (stereo not drawn)
- IC50 (HCT-15): 3.89 µM
- IC50 (MGC-803): 7.82 µM
- IC50 (K562): 1.29 µM
- IC50 [1]: > 50 µM
- selectivity ratio [2]: > 12.6

Compound: CCCCCCCCC(SC(=O)c1cccs1)c1cc(OC)c2c(c1OC)/C(=N/O)C=C/C2=N\O (stereo not drawn)
- IC50 (HCT-15): 1.22 µM
- IC50 (MGC-803): 3.71 µM
- IC50 (K562): 0.95 µM
- IC50 [1]: > 50 µM
- selectivity ratio [2]: > 41

Compound: CCCCCCC(SCCC(C)C)c1cc(OC)c2c(c1OC)/C(=N/O)C=C/C2=N\O (stereo not drawn)
- IC50 (HCT-15): 1.04 µM
- IC50 (MGC-803): 1.9 µM
- IC50 (K562): 1.28 µM
- IC50 [1]: > 50 µM
- selectivity ratio [2]: > 48.1

Compound: O=c1[nH]cc(F)c(=O)[nH]1 [FLUOROURACIL]
- IC50 (MGC-803): > 50 µM
- IC50 (K562): 12.2 µM
- IC50 [1]: > 50 µM
- selectivity ratio [2]: > 6.64
- IC50 [3]: 22900 nM
- IC50 (Bel7402/5-FU): 936 µM
- IC50 (MCF7): 26600 nM
- IC50 (NCI/ADR-RES): 513 µM
- IC50 (A549): 28.6 µM
- IC50 (A549/TR): 112 µM
- Ratio IC50 [4]: 0.02
- Ratio IC50 [5]: 0.05
- Ratio IC50 [6]: 0.26

Compound: CCCCCCCCC(SC(=O)c1ccc(C(F)(F)F)cc1)c1cc(OC)c2c(c1OC)/C(=N/O)C=C/C2=N\O (stereo not drawn)
- IC50 (HCT-15): 3.82 µM
- IC50 (MGC-803): 6.34 µM
- IC50 (K562): 4.45 µM
- IC50 [1]: > 50 µM
- selectivity ratio [2]: > 13.1

Compound: CCCCCCCCCCCCCCC(SC(=O)c1cc(OC)c(OC)c(OC)c1)c1cc(OC)c2c(c1OC)/C(=N/O)C=C/C2=N\O (stereo not drawn)
- IC50 (HCT-15): 7.98 µM
- IC50 (MGC-803): 9.68 µM
- IC50 (K562): 5.83 µM
- IC50 [1]: > 50 µM
- selectivity ratio [2]: > 6.27

Compound: CCCCCCCCC(SC(=O)c1ccco1)c1cc(OC)c2c(c1OC)/C(=N/O)C=C/C2=N\O (stereo not drawn)
- IC50 (HCT-15): 2.42 µM
- IC50 (MGC-803): 5.26 µM
- IC50 (K562): 1.38 µM
- IC50 [1]: > 50 µM
- selectivity ratio [2]: > 20.7

Compound: CCCCCCCCC(SCC)c1cc(OC)c2c(c1OC)/C(=N/O)C=C/C2=N\O (stereo not drawn)
- IC50 (HCT-15): 2.32 µM
- IC50 (MGC-803): 4.39 µM
- IC50 (K562): 2.71 µM
- IC50 [1]: > 50 µM
- selectivity ratio [2]: > 21.6

Compound: CCCCCCCCCCCCC(SC(=O)c1cc(OC)c(OC)c(OC)c1)c1cc(OC)c2c(c1OC)/C(=N/O)C=C/C2=N\O (stereo not drawn)
- IC50 (HCT-15): 5.42 µM
- IC50 (MGC-803): 7.59 µM
- IC50 (K562): 4.41 µM
- IC50 [1]: > 50 µM
- selectivity ratio [2]: > 7.85

Compound: CCCCCCCCC(SCCCCCC)c1cc(OC)c2c(c1OC)/C(=N/O)C=C/C2=N\O (stereo not drawn)
- IC50 (HCT-15): 1.08 µM
- IC50 (MGC-803): 1.91 µM
- IC50 (K562): 1.14 µM
- IC50 [1]: > 50 µM
- selectivity ratio [2]: > 46.3

Compound: CCC(SC(=O)c1cc(OC)c(OC)c(OC)c1)c1cc(OC)c2c(c1OC)/C(=N/O)C=C/C2=N\O (stereo not drawn)
- IC50 (HCT-15): 12.5 µM
- IC50 (MGC-803): 30.3 µM
- IC50 (K562): 14.4 µM
- IC50 [1]: > 50 µM
- selectivity ratio [2]: > 18.2

Compound: CCCCCCCCCCC(SCCC(C)C)c1cc(OC)c2c(c1OC)/C(=N/O)C=C/C2=N\O (stereo not drawn)
- IC50 (HCT-15): 4.75 µM
- IC50 (MGC-803): 8.91 µM
- IC50 (K562): 5.49 µM
- IC50 [1]: > 50 µM
- selectivity ratio [2]: > 10.5

Compound: CCCCCCCCCCSC(CCCCCCCCCC)c1cc(OC)c2c(c1OC)/C(=N/O)C=C/C2=N\O (stereo not drawn)
- IC50 (HCT-15): 35.2 µM
- IC50 (MGC-803): > 50 µM
- IC50 (K562): 40.3 µM
- IC50 [1]: > 50 µM
- selectivity ratio [2]: > 1.42

Compound: CCCCCCC(SC(=O)c1cc(OC)c(OC)c(OC)c1)c1cc(OC)c2c(c1OC)/C(=N/O)C=C/C2=N\O (stereo not drawn)
- IC50 (HCT-15): 2.21 µM
- IC50 (MGC-803): 4.92 µM
- IC50 (K562): 1.52 µM
- IC50 [1]: > 50 µM
- selectivity ratio [2]: > 22.6

Compound: CC(C)=CC[C@@H](O)C1=CC(=O)c2c(O)ccc(O)c2C1=O [SHIKONIN]
- IC50 (K562): 1.02 µM
- IC50 [1]: 1.25 µM
- selectivity ratio [2]: 1.45

Compound: CCCCCCCCCCCCCCC(SCCC(C)C)c1cc(OC)c2c(c1OC)/C(=N/O)C=C/C2=N\O (stereo not drawn)
- IC50 (HCT-15): 22.5 µM
- IC50 (MGC-803): 38.2 µM
- IC50 (K562): 25.7 µM
- IC50 [1]: > 50 µM
- selectivity ratio [2]: > 2.22

Compound: CCCCCCCCCCC(SCCCCCC)c1cc(OC)c2c(c1OC)/C(=N/O)C=C/C2=N\O (stereo not drawn)
- IC50 (HCT-15): 10.3 µM
- IC50 (MGC-803): 18.5 µM
- IC50 (K562): 10.8 µM
- IC50 [1]: > 50 µM
- selectivity ratio [2]: > 4.86

Compound: CCCCCCCCCCC(SCC)c1cc(OC)c2c(c1OC)/C(=N/O)C=C/C2=N\O (stereo not drawn)
- IC50 (HCT-15): 0.89 µM
- IC50 (MGC-803): 1.87 µM
- IC50 (K562): 1.05 µM
- IC50 [1]: > 50 µM
- selectivity ratio [2]: > 56.2

Compound: CCCCCCCCCCC(SC(=O)c1cc(OC)c(OC)c(OC)c1)c1cc(OC)c2c(c1OC)/C(=N/O)C=C/C2=N\O (stereo not drawn)
- IC50 (HCT-15): 1.39 µM
- IC50 (MGC-803): 4.66 µM
- IC50 (K562): 1.96 µM
- IC50 [1]: > 50 µM
- selectivity ratio [2]: > 36

Compound: COc1cccc2c1C(=O)c1c(O)c3c(c(O)c1C2=O)C[C@@](O)(C(=O)CO)C[C@@H]3O[C@H]1C[C@H](N)[C@H](O)[C@H](C)O1.Cl [DOXORUBICIN HYDROCHLORIDE]
- IC50 [3]: 1320 nM
- IC50 (Bel7402/5-FU): 11 µM
- IC50 (MCF7): 420 nM
- IC50 (NCI/ADR-RES): 39.5 µM
- IC50 (A549/TR): 42.6 µM
- Ratio IC50 [4]: 0.12
- Ratio IC50 [5]: 0.01
- Ratio IC50 [6]: 0.04

Compound: CCCCC(SCCC(C)C)c1cc(OC)c2c(c1OC)/C(=N/O)C=C/C2=N\O (stereo not drawn)
- IC50 (HCT-15): 2.92 µM
- IC50 (MGC-803): 5.96 µM
- IC50 (K562): 2.03 µM
- IC50 [1]: > 50 µM
- selectivity ratio [2]: > 17.1

Compound: CCCCCCCCCC(SCCC(C)C)c1cc(OC)c2c(c1OC)/C(=N/O)C=C/C2=N\O (stereo not drawn)
- IC50 (HCT-15): 0.92 µM
- IC50 (MGC-803): 1.54 µM
- IC50 (K562): 0.98 µM
- IC50 [1]: > 50 µM
- selectivity ratio [2]: > 54.3

Compound: CC(=O)O[C@H]1C(=O)[C@@]2(C)[C@H]([C@H](OC(=O)c3ccccc3)[C@]3(O)C[C@H](OC(=O)[C@H](O)[C@@H](NC(=O)c4ccccc4)c4ccccc4)C(C)=C1C3(C)C)[C@]1(OC(C)=O)CO[C@@H]1C[C@@H]2O [PACLITAXEL]
- IC50 [3]: 650 nM
- IC50 (Bel7402/5-FU): 10.5 µM
- IC50 (MCF7): 470 nM
- IC50 (NCI/ADR-RES): 17.7 µM
- IC50 (A549): 0.54 µM
- IC50 (A549/TR): 24.5 µM
- Ratio IC50 [4]: 0.06
- Ratio IC50 [5]: 0.03
- Ratio IC50 [6]: 0.02
